In patent US10221163B2 (priority 2015, dated 2019):
pIC50: −log10 of the molar value. Where two headings read alike, the source gives them in different places.

What was measured:
[1] = system: Klebsiella pneumoniae expressing VIM-1 (IHMA599644); type: cell-based; conditions: for Klebsiella pneumoniae MITC95: VIM-1 strain IHMA599644, with imipenem 1 μg/ml, 95% inhibition of growth; for Klebsiella pneumoniae expressing VIM-1 (IHMA599644) MITC95: with imipenem 1 μg/ml, 95% inhibition of bacterial growth
Summary of the method: (§1)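 Imipenem 1 μg/ml + inhibitor; MBL-expressing clinical strains in 1.1×CAMHB, inoculum from saline suspension diluted 1:100; 35° C, 22–24 h; absorbance read-out.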

[2] = system: Serratia marcescens expressing IMP-1 (CL5741); type: cell-based; conditions: for Serratia marcescens MITC95: IMP-1 strain CL5741, with imipenem 1 μg/ml, 95% inhibition of growth; for Serratia marcescens expressing IMP-1 (CL5741) MITC95: with imipenem 1 μg/ml, 95% inhibition of bacterial growth
Summary of the method: as §1

[3] = system: Escherichia coli expressing NDM-1 (CLB30005, CLB30016); type: cell-based; conditions: with imipenem 1 μg/ml; for Escherichia coli MITC95: NDM-1 strain, 95% inhibition of growth; for Escherichia coli expressing NDM-1 (CLB30016) MITC95: 95% inhibition of bacterial growth
Summary of the method: as §1

[4] = system: Pseudomonas aeruginosa efflux− (MB9799), IMP-1; type: cell-based; conditions: C, D serine β-lactamase inhibitor closely related to relebactam; for Concentration of metallo-β-lactamase inhibitor which restores susceptibility of efflux − (MB9799) strain to imipenem: imipenem at 2 μg/mL, in the presence of a class A; for P. aeruginosa expressing IMP-1, efflux − (MB9799) MITC95: concentration restoring susceptibility to imipenem at 2 μg/mL in the presence of a class A
Summary of the method: (§2)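 P. aeruginosa PAO1-derived IMP-1 strains, efflux+ MB9798 and efflux− MB9799, tested by standard microbroth MIC with imipenem and/or ceftazidime fixed, usually at CLSI breakpoint, plus fixed class A/C β-lactamase inhibitor against AmpC. Inhibitor titrated; concentration restoring susceptibility recorded; MB9798/MB9799 fold difference indicates efflux.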

[5] = system: Pseudomonas aeruginosa MB9798 vs MB9799
Summary of the method: as §2

[6] = molecular target: VIM-1 (Pseudomonas aeruginosa (strain ATCC 15692 / DSM 22644 / CIP 104116 / JCM 14847 / LMG 12228 / 1C / PRS 101 / PAO1), UniProt A0A0F7KYQ8); assay: biochemical; conditions: CCF2-FA substrate, 30 pM enzyme, 2 hours at 25° C.
Summary of the method: (§3)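 Fluorescence assay of metallo-β-lactamase activity using CCF2-FA, a cephalosporin-linked 7-hydroxycoumarin–fluorescein substrate. Inhibitor, enzyme and substrate were incubated together for 2 hours at 25° C. IC50 came from a 4-parameter fit of inhibition versus inhibitor concentration.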

[7] = system: Pseudomonas aeruginosa efflux+ (MB9798), IMP-1; type: cell-based; design: Concentration of metallo-β-lactamase inhibitor which restores susceptibility of efflux + (MB9798) strain to imipenem: unit not given here; conditions: C, D serine β-lactamase inhibitor closely related to relebactam; for Concentration of metallo-β-lactamase inhibitor which restores susceptibility of efflux + (MB9798) strain to imipenem: imipenem at 2 μg/mL, in the presence of a class A; for P. aeruginosa expressing IMP-1, efflux + (MB9798) MITC95: concentration restoring susceptibility to imipenem at 2 μg/mL in the presence of a class A
Summary of the method: as §2

[8] = molecular target: IMP-1 (Serratia marcescens, UniProt P52699); assay: biochemical; type: biochemical; conditions: fluorescence assay, CCF2-FA substrate, 2 pM enzyme, 2 hours at 25° C.; read-out: IMP-1 IC50
IMP-1, sequence (P52699 whole entry, looked up, species assumed): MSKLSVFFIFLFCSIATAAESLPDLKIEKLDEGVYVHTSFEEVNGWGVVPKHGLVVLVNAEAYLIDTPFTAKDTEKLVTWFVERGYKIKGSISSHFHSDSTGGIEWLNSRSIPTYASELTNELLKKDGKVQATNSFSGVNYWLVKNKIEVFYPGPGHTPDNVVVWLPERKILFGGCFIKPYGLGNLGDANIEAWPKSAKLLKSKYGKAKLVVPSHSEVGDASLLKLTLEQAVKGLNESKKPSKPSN
Summary of the method: as §3

[9] = molecular target: NDM-1 (Klebsiella pneumoniae, UniProt C7C422); assay: biochemical; type: biochemical; conditions: fluorescence assay, CCF2-FA substrate, 1 pM enzyme, 2 hours at 25° C.; read-out: NDM-1 IC50
NDM-1, sequence (C7C422 whole entry, looked up, species assumed): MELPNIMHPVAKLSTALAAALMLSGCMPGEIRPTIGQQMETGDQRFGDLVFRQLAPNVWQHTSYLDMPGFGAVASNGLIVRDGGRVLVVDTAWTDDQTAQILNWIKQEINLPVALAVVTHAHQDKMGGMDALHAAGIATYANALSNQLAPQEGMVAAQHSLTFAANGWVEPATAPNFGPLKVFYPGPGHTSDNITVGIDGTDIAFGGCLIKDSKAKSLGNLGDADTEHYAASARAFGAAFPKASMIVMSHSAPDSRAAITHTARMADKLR
Summary of the method: as §3

[10] = fold difference between efflux+ (MB9798) and efflux− (MB9799) strains, imipenem at 2 μg/mL
[11] = ratio MITC95 PA_9798/MITC95 PA_9799
[12] = fluorescence assay, read-out: VIM-1 IC50

SMILES | Klebsiella pneumoniae MITC95 [1] | Serratia marcescens MITC95 [2] | Escherichia coli MITC95 [3] | Concentration of metallo-β-lactamase inhibitor which restores susceptibility of efflux − (MB9799) strain to imipenem [4] | Efflux ratio [5, 10] | pIC50 ([6]; VIM-1 IC50, fluorescence assay) | Concentration of metallo-β-lactamase inhibitor which restores susceptibility of efflux + (MB9798) strain to imipenem [7] | pIC50 [8] | pIC50 [9] | P. aeruginosa expressing IMP-1, efflux − (MB9799) MITC95 [4] | Efflux ratio [5, 11] | P. aeruginosa expressing IMP-1, efflux + (MB9798) MITC95 [7] | Klebsiella pneumoniae expressing VIM-1 (IHMA599644) MITC95 [1] | Serratia marcescens expressing IMP-1 (CL5741) MITC95 [2] | Escherichia coli expressing NDM-1 (CLB30016) MITC95 [3] | pIC50 [6, 12]
Nc1nc2c(-c3ccc(S(=O)(=O)N[C@@H]4CNC[C@H]4N)c(S(N)(=O)=O)c3-c3nn[nH]n3)cccc2[nH]1 [Example 424] | 1.563 µM | 1.563 µM | 0.7813 µM | 1.563 | 1.00 | 9.52 | 1.563 | 9.09 | 10.06 | – | – | – | – | – | – | –
NCc1nc2c(-c3ccc(S(=O)(=O)NC[C@H](O)CN)c(S(N)(=O)=O)c3-c3nn[nH]n3)cccc2s1 [Example 300, (R)—N1-(3-amino-2-hydroxypropyl)-4-(2-(aminomethyl)benzo[d]thiazol-4-yl)-3-(2H-tetrazol-5-yl)benzene-1,2-disulfonamide] | 1.563 µM | 1.563 µM | 1.563 µM | – | – | 10.17 | – | 9.50 | 10.15 | 0.7813 µM | 1.00 | 0.7813 µM | – | – | – | –
NC[C@H](O)CNS(=O)(=O)c1ccc(-c2cnc(N)c(F)c2)c(-c2nn[nH]n2)c1S(N)(=O)=O [Example 469, (S)-N1-(3-amino-2-hydroxypropyl)-4-(6-amino-5-fluoropyridin-3-yl)-3-(2H-tetrazol-5-yl)benzene-1,2-disulfonamide] | 3.125 µM | 3.125 µM | 1.563 µM | 0.7813 | 1.00 | 10.06 | 0.7813 | 9.26 | 9.82 | – | – | – | – | – | – | –
Nc1nc2c(-c3ccc(S(=O)(=O)N[C@@H]4CCCNC4)c(S(N)(=O)=O)c3-c3nnn[nH]3)cccc2s1 [Example 69, 4-(2-amino-1,3-benzothiazol-4-yl)-N1-[(3R)-piperidin-3-yl]-3-(1H-tetrazol-5-yl)benzene-1,2-disulfonamide] | – | – | – | – | – | 9.73 | – | 9.73 | 10.49 | 1.563 µM | 0.50 | 0.7813 µM | 3.125 µM | 1.563 µM | 0.7813 µM | –
Nc1nc2c(-c3ccc(S(=O)(=O)NC[C@H]4CNCCN4)c(S(N)(=O)=O)c3-c3nn[nH]n3)cccc2[nH]1 [Example 314, (R)-4-(2-amino-1H-benzo[d]imidazol-4-yl)-N1-(piperazin-2-ylmethyl)-3-(2H-tetrazol-5-yl)benzene-1,2-disulfonamide] | 1.563 µM | 1.563 µM | 0.7813 µM | – | – | – | – | 9.31 | 10.49 | 0.7813 µM | 1.00 | 0.7813 µM | – | – | – | 9.94
Nc1nc2c(-c3ccc(S(=O)(=O)NC[C@]4(N)CCNC4)c(S(N)(=O)=O)c3-c3nn[nH]n3)cccc2[nH]1 [Example 250, (S)-4-(2-amino-1H-benzo[d]imidazol-4-yl)-N1-((3-aminopyrrolidin-3-yl)methyl)-3-(2H-tetrazol-5-yl)benzene-1,2-disulfonamide] | 1.563 µM | 0.7813 µM | 0.3906 µM | – | – | – | – | 9.29 | 10.47 | 0.7813 µM | 1.00 | 0.7813 µM | – | – | – | 9.70
NCC(CN)NS(=O)(=O)c1ccc(-c2cccn3ccnc23)c(-c2nn[nH]n2)c1S(N)(=O)=O [Example 386, N1-(1,3-diaminopropan-2-yl)-4-(imidazo[1,2-c]pyridin-8-yl)-3-(2H-tetrazol-5-yl) benzene-1,2-disulfonamide] | 3.125 µM | 1.563 µM | 0.9766 µM | – | – | 9.77 | – | 9.85 | 9.87 | 1.563 µM | 1.00 | 1.563 µM | – | – | – | –
NS(=O)(=O)c1c(S(=O)(=O)N[C@@H]2CCNC2)ccc(-c2cnc3cc[nH]c3c2)c1-c1nn[nH]n1 [Example 282, (R)-N1-(pyrrolidin-3-yl)-4-(1H-pyrrolo[3,2-b]pyridin-6-yl)-3-(2H-tetrazol-5-yl)benzene-1,2-disulfonamide] | 1.563 µM | 0.7813 µM | 0.7813 µM | – | – | 9.88 | – | 8.95 | 10.35 | 0.7813 µM | 1.00 | 0.7813 µM | – | – | – | –
CNc1ccc(-c2ccc(S(=O)(=O)NCCN)c(S(N)(=O)=O)c2-c2nn[nH]n2)cn1 [Example 243] | 1.563 µM | 0.3906 µM | 0.3906 µM | – | – | – | – | 9.51 | 9.56 | 0.7813 µM | 1.00 | 0.7813 µM | – | – | – | 9.71
CN1CC(N(C)S(=O)(=O)c2ccc(-c3cccc4sc(N)nc34)c(-c3nnn[nH]3)c2S(N)(=O)=O)C1.O=C(O)C(F)(F)F [Example 107, 3-(4-(2-aminobenzo[d]thiazol-4-yl)-N-methyl-2-sulfamoyl-3-(1H-tetrazol-5-yl)phenylsulfonamido)-1-methylazetidin-1-ium 2,2,2-trifluoroacetate] | – | – | – | – | – | – | – | 8.85 | 9.73 | 1.563 µM | 4.00 | 6.25 µM | 6.25 µM | 3.125 µM | 3.125 µM | 8.77
